Where “and” joins values, the source holds several entries; their conditions need not be identical. Identical values can stand only once. Calls of active or inactive are those of the source.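 How the source made its calls: active means compounds giving half or more protection of infected cells from virus-caused growth loss, again on retest; inactive means the rest.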 Where a SMILES comes first, the peptide text is derived from it. The star is where a group is joined. Boc = CC(C)(C)OC(=O)*; OSu = O=C1CCC(=O)N1O*
Test system: CEM cells HIV-1 protection, formazan growth assay
Assay: NCI AIDS Antiviral Assay
Conditions: for IC50: measured here: growth of uninfected CEM cells
How it was run: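 Five concentrations of each compound were applied to infected and uninfected human CEM cells. Protection from HIV-1 was judged from growth measured with a soluble formazan assay.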

SMILES | EC50 [µM] | IC50 | outcome
CCCCOC1CC2(c3ccc(OC)cc3)C(=O)c3ccccc3N2O1 (stereo not given) | > 112 | 24 µM | –
Nc1ncnc2c1ncn2CC1OC(CO)C(CO)O1 (stereo not given) | > 891 | > 891 µM | –
O=C1N(Cl)C2C(N1Cl)N(Cl)C(=O)N2Cl (stereo not given) | > 200 | > 200 µM | –
CCCCCCCC(=O)N1C2CC3CCC2(CS1(=O)=O)C3(C)C (stereo not given) | > 200 | 19.1 µM | –
Cc1ccc2oc(=O)c(C#N)c(/C=C/c3cccc4ccccc34)c2c1 | > 200 | > 200 µM | –
O=C(CC1(O)C(=O)Nc2ccc(Br)cc21)c1ccc2c(c1)OCO2 (stereo not given) | > 200 | 178 µM | –
C/C(=N/N)c1ccc2[nH]c3c(C)cc([N+](=O)[O-])c(C)c3c2c1 | > 24.5 | 4.9 µM | –
Nc1nc2c(ncn2C(CCO)SCCO)c(=O)[nH]1 (stereo not given) | > 871 | > 871 µM | –
COC(=O)C12CC3CC(C1)CC(C(=O)OC)(C3)C2 | > 513 | 363 µM | –
COC(=O)[C@]1(C)CCC[C@@]2(C)C1CC[C@]13C=C(C(C)C)[C@H](CC21)CC3(Cl)C#N (stereo not given in full) | > 200 | 37.2 µM | –
Cn1cc(NC(=O)c2nc(NC(=O)c3nc(NC(=O)/C=C/C(=O)Nc4cn(C)c(C(=O)Nc5cn(C)c(C(=O)Nc6cn(C)c(C(=O)NCCC(=N)N)n6)n5)n4)cn3C)cn2C)nc1C(=O)NCCC(=N)N | > 50.1 | 8.51 µM | –
CCCCCOB(OCCCCC)OCCCCC | – | – | inactive
c1cc2cc3c4c5c(cc6ccc7cc8cc9c%10c8c8c7c6c5c8c5c%10c(c1C9N1CCOCCOCCOCCOCCOCC1)c2c45)C3 (stereo not given) | > 100 | > 100 µM | –
O=C(Nc1cc2c(oc1=O)CCCCCC2)c1cnccn1 | > 50.1 | > 50.1 µM | –
Nc1ncnc2c1ccn2C/C=C/CO | > 200 | > 200 µM | –
O=C1c2ccccc2-c2c1c1ccccc1c(=O)n2-c1ccccc1 | > 30.9 | > 30.9 µM | –
O=[N+]([O-])c1ccc[c]([Sb](=[O])([OH])[OH])c1 | > 398 | > 200 µM | –
O=C1CC2(CCC(O)(c3ccc(Cl)cc3)C(C(=O)c3ccc(Cl)cc3)C2)C(=O)c2ccccc2N1 (stereo not given) | > 200 | 67.6 µM | –
CCOC(=O)C1Sc2c(c(=O)n(C)c3ccccc23)C1=O (stereo not given) | > 16.6 | 12 µM | –
Cc1cc(-c2cc(C(C)(C)C)c(O)c(C(C)(C)C)c2)c(C)cc1-c1cc(C(C)(C)C)c(O)c(C(C)(C)C)c1 | > 100 | > 100 µM | –
Cc1ccc(N=Nc2c(C)c(C#N)c(=S)n(C3OC(CO)C(O)C(O)C3O)c2-c2ccccc2)cc1 (stereo not given) | > 200 | 18.6 µM | –
ON=C(C1CC1)C1CC1 | > 200 | > 200 µM | –

SMILES | EC50 [µM] | IC50 | outcome
CC(C)CC1CC2C(=O)N(c3ccccc3)C(=O)C2c2[nH]c3ccccc3c21 (stereo not given) | – | – | inactive
CC(NC(=O)C(NC(=O)OC(C)(C)C)C(C)C)C(=O)NCC(=O)ON1C(=O)CCC1=O (stereo not drawn) (Boc-Val-Ala-Gly-OSu; configuration not given here) | > 200 | 117 µM | –
C[C@H]1CC[P+](C)(c2ccccc2)C1 (stereo not given in full) | > 912 | > 912 µM | –
CC(=O)O[C@H]1CC(C)(C)C(=C=C/C(C)=C/C=C/C=C/C=C(C)/C=C2C=C(/C=C/[C@@]34O[C@]3(C)C[C@@H](O)CC4(C)C)C(=O)O/2)[C@](C)(O)C1 | > 151 | 6.92 µM | –
O=C(CCC(=O)C(C(=O)c1ccccc1)c1ccccc1)Nc1cccc(C(F)(F)F)c1 (stereo not given) | – | – | inactive
CC(=O)C(CN(C(C)C)C(C)C)C(c1ccccc1)c1c(O)c2ccccc2oc1=O (stereo not given) | > 85.1 | 75.9 µM | –
COc1ccc(NS(=O)c2c(C)cc(C)cc2C)cc1 (stereo not given) | > 200 | 12 µM | –
Cc1cc(C)c(S(=O)(=O)ONC(=O)OC(C)(C)C)c(C)c1 | – | – | inactive
CC(C)(C)NC(NC(C)(C)C)=C(C(Cl)=C(Cl)Cl)[N+](=O)[O-] | > 200 | > 200 µM | –
C=C1CN(S(=O)(=O)c2ccc(C)cc2)CCCN(Cc2ccccn2)CCCN(S(=O)(=O)c2ccc(C)cc2)C1 | > 200 | > 200 µM | –
CCOC(=O)C=C1CCC2(CC1)OCCO2 | > 251 | > 251 µM | –
CCN(CCC#N)C(=O)Nc1ccccc1 | > 200 | > 200 µM | –
COc1cc(CO)c(C2OC(CO)C(O)C2O)c(OC)c1 (stereo not given) | – | – | inactive
CC(=O)C1=C(C)N2C(=NC3=C(CCc4ccccc43)C2c2ccc(F)cc2)S1 (stereo not given) | > 200 | 178 µM | –
COc1ccc(C2C(Cl)C(=O)N2NC(=O)c2ccccc2O)cc1 (stereo not given) | > 145 | > 145 µM | –
CN1C(=O)C(O)(C2=C3OCOC3=CC(=O)C2=O)c2ccccc21 (stereo not given) | > 200 | 32.4 µM | –
O=C1NN2CCN=C2c2cccnc21 | > 1320 | > 1320 µM | –
[N-]=[N+]=NCN1C(=O)C2C3C=CC(C2C1=O)C1C2C(=O)N(CN=[N+]=[N-])C(=O)C2C31 (stereo not given) | – | – | inactive
Cn1c2ccccc2c2oc(CO)cc(=O)c21 | > 200 | 126 µM | –
CC(C)(C)OC(=O)NC(Cc1ccccc1)/C(O)=C(\C#N)c1ccc([N+](=O)[O-])cc1 (stereo not given) | > 200 | 83.2 µM | –
O=C(O)c1ccc(CS(=O)c2ccccc2C(=O)O)c([N+](=O)[O-])c1 (stereo not given) | > 708 | > 708 µM | –
O=C1CC2(CCC(O)(c3ccccc3)C(C(=O)c3ccccc3)C2)C(=O)c2ccccc2N1 (stereo not given) | > 200 | > 200 µM | –

SMILES | EC50 [µM] | IC50 | outcome
CCCCCCC[CH2][Sn]1([CH2]CCCCCCC)[O]C(=O)c2cccnc2[O]1 | > 7.41 | > 7.41 µM | –
Cc1ccc(C2=C(c3ccccc3)C(O)(c3ccccc3)C(c3ccccc3)=C2c2ccc(C)cc2)cc1 | > 7.76 | > 7.76 µM | –
COc1cccc(/C=C2\N=C(c3ccccc3)OC2=O)c1OC | > 200 | 91.2 µM | –
C#CC1(O)CCCCCCCCC2(CCCCCCCC1)OCCO2 | > 200 | 25.7 µM | –
COc1ccc(/C(C#N)=C/c2cc(OC)c(OC)c(OC)c2)cc1 | > 200 | 5.75 µM | –
Cc1nc(SCC(=O)Nc2ccccc2)c2sc(=S)n(-c3ccccc3)c2n1 | > 501 | > 501 µM | –
C#CC(O)/C=C/C(O)CCCC(O)CC#CC(O)C#CC(O)CCCC(O)/C=C/CCCCCC(=O)CCCCCCCCCCCCCC(O)C(O)C#CC(=O)O (stereo not given) | > 100 | 58.9 µM | –
Cc1cc(Br)ccc1N=NC1C(=O)ON=C1c1ccccc1 (stereo not given) | – | – | inactive
Cc1cc(-c2ccccc2)c2ccc3c(-c4ccccc4)cc(C)nc3c2n1.Cc1cc(-c2ccccc2)c2ccc3c(-c4ccccc4)cc(C)nc3c2n1.O=C1OC(C(O)C[O-])C(O)=C1O.[Cu+] | > 25.1 | 0.708 µM | –
O=[N+]([O-])c1ccc(C=Cc2ccccc2)cc1.[C-]#[O+].[C-]#[O+].[C-]#[O+].[Cr] | – | – | inactive
Cc1nc2ccc(N)cc2[nH]c1=O | > 741 | > 741 µM | –
CC(=O)Nc1c(S(=O)(=O)c2ccccc2)c(C)c(C)n1Cc1ccccc1 | > 200 | 132 µM | –
c1ccc2c(c1)Sc1ccccc1N2CCCN1c2ccccc2Sc2ccccc21 | > 50.1 | > 50.1 µM | –
O=C(/C(=C/c1cccs1)c1ccccc1)c1ccccc1 | > 200 | > 200 µM | –
O=C(O)CCCSC(=O)Nc1ccc(N=Nc2ccccc2)cc1 | – | – | inactive
COc1ccc2c(c1)N1CCc3cc(OC)c(OC)cc3C1C2 (stereo not given) | – | – | inactive
Cc1cn(C2C/C(=N\O)C(CO)O2)c(=O)[nH]c1=O (stereo not given) | 12.6 | 174 µM | –
COc1ccn(C)c(=O)c1C#N | > 1510 | > 1510 µM | –
Nc1nc2c(c(-c3cccc(Cl)c3)n1)COC/C2=C\c1cccc(Cl)c1 | > 200 | > 200 µM | –
CC1(C)CC(=O)C2=C(C1)NC(=S)C(C#N)C2c1ccccc1 (stereo not given) | > 85.1 | 32.4 µM | –
O=C(O)c1ccccc1C(=O)NC(Cc1cnc[nH]1)C(=O)O (stereo not given) | > 200 | > 200 µM | –
NC(=O)CCCCNC(=O)c1ccccc1SC(=O)CCCC[n+]1ccccc1 | 1.26 | 10.7 µM | –

SMILES | EC50 [µM] | IC50 | outcome
COc1cccc(/C=C/c2cnc3ccccc3n2)c1OC | > 200 | 151 µM | –
C=C[C@]1(C)CC(=O)C(C(C)C=O)[C@]12C(=O)Oc1cccc(C)c1C2=O (stereo not given in full) | > 200 | 13.5 µM | –
C/C1=C/COC(=O)CC/C(C)=C/CC1 | – | – | inactive
C/C(C=C(C#N)C#N)=C\c1ccc(C)cc1 | > 1200 | > 1200 µM | –
COC(=O)C1Cc2c([nH]c3ccccc23)C(c2ccccc2O)N1Cc1ccccc1 (stereo not given) | – | – | inactive
O=C(O)c1cc(N=Nc2c(O)cc(O)cc2C(=O)O)ccc1/C=C/c1ccc(N=Nc2c(O)cc(O)cc2C(=O)O)cc1C(=O)O | 87.1 | 95.5 µM | –
CC(C)c1cc2c(O)c(c1)Cc1cc(C(C)C)cc(c1O)Cc1cc(C(C)C)cc(c1O)Cc1cc(C(C)C)cc(c1O)C2 | > 6.31 | > 6.31 µM | –
O=c1c2cccc3cccc(c4n1CCCN=4)c32 | > 200 | 17 µM | –
C/C(=N\N=C(\[Se])N1CCN(c2ccccn2)CC1)c1ccccn1 | > 36.3 | 0.0155 µM | –
CCCCCCCCC#CCCCCCCCCCC[C@@H]1C(=O)O[C@H](C)[C@@H]1O (tested in a mixture with another compound) | > 200 | 35.5 µM | –
O=S(=O)(c1ccccc1)C1CN(Cc2ccccc2)CCN(Cc2ccccc2)C1 | – | – | inactive
Cc1ccc(Nc2nc3c(s2)C(=O)c2ccccc2C3=O)cc1 | > 16.2 | 6.17 µM | –
CC(c1ccccc1)C(O)S(=O)(=O)O (stereo not given) | – | – | inactive
CN(C)c1ccc(-c2cc(C(=O)O)c3c(ccc4ccccc43)n2)cc1 | > 20.9 | > 20.9 µM | –
Cn1c(SSc2ccc(-c3cccnc3)n2C)ccc1-c1cccnc1 | > 200 | 1.86 µM and 2.45 µM | –
COC(=O)C1C=CCC2CCCCC21N1CCCC1 (stereo not given) | – | – | inactive
C/C(CC(O)(/C=N/O)c1ccccc1)=N/O (stereo not given) | > 200 | > 200 µM | –
NC(=O)CCNC(=O)c1ccccc1SC(=O)CCCC[n+]1ccccc1 | 1.95 | 174 µM | –
CCN=C1Nc2ccccc2-n2c(nn3nc4ccccc4c23)N1CC | 5.37 | > 200 µM | –
